{
  "source": "patent US20180346995A1",
  "about": "“Process for Exploiting Synthetic Lethality Based on OverExpression of MYC Oncogene” (priority 2017, published 2018)",
  "key": {"[1]": {"system": "HA1E cells expressing MycER", "assay": "Cell death on acute activation of MYC (MycER + 4-OHT), HA1E", "type": "cell-based, human", "conditions": "3 days; for cell death, agent alone: single agent", "protocol": "(§1) Cell viability was determined by the trypan blue exclusion assay. Each column represents the average of 3 independent experiments, and each experiment was done in triplicate. Error bars represent one standard deviation. FIG. 1(B) illustrates the cytotoxicity of H-1152 for normal cells and a MYC-overexpressing human cancer cell line IM-9. H-1152 was applied to the indicated cells at 6 μM for 3 days. Cell viability, was determined by the trypan blue exclusion assay. A representative experiment is shown. […] Rat1A cells harboring either an empty vector or various indicated oncogenes were treated with either 0.1% DMSO or 6 μM H-1152 for 3 days. Cell viability was determined by the trypan blue exclusion assay. Each column represents the average of 3 independent experiments, and each experiment was done in triplicate. Error bars represent one standard deviation. […] Rat (Rat1A) or human (HA1E and IMR-90) cells expressing either MycER or MycNER were incubated with or without 6 μM H-1152 and/or 200 nM 4-OHT for 3 days. Cell viability was determined by the trypan blue exclusion assay. A representative experiment is shown.\n(§2) In order to negate the possibility that sustained expression of MYC gene has given rise to unidentified targets affected by H-1152, sensitivity of H-1152 in acutely activated cells was measured. Acute activation of MYC was exploited by means of a MYC-estrogen receptor chimera. This receptor is rapidly activated by the addition of 4-hydroxy-tamoxifen (“4-OH”). […] FIG. 1D. A similar experiment was conducted with acute activation of the MYCN gene. MYCN shares high sequence similarity and crucial biochemical and genetic activities with MYC. […] Accordingly, H-1152 elicits MYC-dependent cell lethality irrespective of whether MYC is constitutively expressed or acutely activated. Furthermore, this sensitivity holds true for both fibroblasts cells and epithelial cells."}, "[2]": {"system": "IMR-90 cells expressing MycER", "assay": "Cell death on acute activation of MYC (MycER + 4-OHT), IMR-90", "type": "cell-based, human", "conditions": "IMR-90 MycER, 3 days; for cell death, agent alone: single agent", "protocol": "as §1, §2"}, "[3]": {"system": "Myc^low human cancer cell lines", "assay": "Cytotoxicity in Myc^low human cancer cell lines (trypan blue)", "type": "cell-based", "conditions": "Myc^low group, 6 μM, 4 days", "protocol": "(§3) FIG. 5. illustrates that MYC abundance is a univariate predicator of the response of human tumor cell lines to H-1152 by showing the cytotoxicity of H-1152 for 75 human cancer cell lines. Cell lines in the Myc^high group and the Myc^low group were treated for four days with either 0.1% DMSO or 6 μM H-1152. Cell viability was then determined by the trypan blue exclusion assay. FIG. 5(A) is a histogram representing the average of two independent experiments. […] Results are presented as the percentage of dead cells in the presence of H-1152 minus that in the presence of DMSO. Red, yellow and green dots represent cell lines with abundant Myc, MycN and L-Myc respectively. Comparison of the two data sets with two-sided Mann-Whitney test indicates p<0.0001.\n(§4) The Myc^high group also includes 8 cell lines with abundant MycN expression and 3 cell lines abundantly expressing L-Myc. […] (FIG. 5 A, B). The difference between the two data sets was statistically significant."}, "RPE-MYC cells [4]": {"system": "RPE-MYC cells", "assay": "Apoptosis assays (immunofluorescence, Mitotracker) in RPE-MYC cells", "type": "cell-based, human", "conditions": "6 μM", "protocol": "RPE-MYC cells were exposed to 6 μM H-1152 for 48 hours and then incubated for 30 minutes with 40 nM MITOTRACKER Red (Molecular Probes) and fixed. Fixed cells were stained for DNA with DAPI (in blue) and then analyzed with a confocal laser microscope. Arrowheads indicate apoptotic nuclei. Scale bar, 10 μm. See Appendix A—for Immunofluorescence Microscopy method. […] RPE-MYC and RPE-NEO cells were treated with 0.1% DMSO or 6 μM H-1152 for 3 days and then subjected to the indicated assays. Each column represents the average of 3 independent experiments, and each experiment was done in triplicate. Error bars represent one standard deviation.\nFIG. 2B. […] FIB 2A. […]\nCells are cultured on coverslips in a 6-well plate, fixed with 4% paraformaldehyde or 4% paraformaldehyde followed with methanol treatment, and then permeabilized with 0.3% Triton X-100. […] Primary antibodies are detected with Texas red-conjugated or fluorescein isothiocyanate-conjugated secondary antibodies that may be purchased from Jackson ImmunoResearch. […]\nFor determination of mitochondrial membrane potential, cells are cultured on cover slips and exposed for 30 min at 37° C. with 40 nM Mitotracker# Red CMXRos (Molecular Probes), a dye that accumulates in mitochondria as a function of the mitochondrial potential. […] For fluorescence detection, an EVOS FL auto microscope (THERMO FISHER) can be used."}, "[5]": {"system": "cells expressing MYCN-estrogen receptor chimera", "assay": "Cell death on acute activation of MYCN (MycNER + 4-OHT)", "type": "cell-based", "conditions": "MYCN-ER activated with 4-OHT, H-1152 application", "protocol": "as §1\nIn order to negate the possibility that sustained expression of MYC gene has given rise to unidentified targets affected by H-1152, sensitivity of H-1152 in acutely activated cells was measured. Acute activation of MYC was exploited by means of a MYC-estrogen receptor chimera. […]"}, "[6]": {"system": "Myc^high human cancer cell lines", "assay": "Cytotoxicity in Myc^high human cancer cell lines (trypan blue)", "type": "cell-based", "conditions": "6 μM, 4 days", "protocol": "as §3, §4"}, "[7]": {"system": "NCI-H524 xenograft tumors", "assay": "Xenograft tumor growth in athymic mice, NCI-H524", "type": "in vivo", "conditions": "Myc^high NCI-H524, 60 mg/kg oral gavage twice a day", "source_text": "(§5) FIG. 7. illustrates how H-1152 elicits therapeutic efficacy against tumorigenesis of cancer cells that overexpress MYC. […] Extracts from four human cancer cell lines (1. NCI-H524, 2. NCI-H841, 3. NCI-H211, 4. NCI-H2199) were blotted for MYC and tubulin by Western blotting. […] See Appendix D for Method of Mouse In Vivo Assay. Two Myc^high cell lines and two Myc^low cell lines were implanted subcutaneously into athymic mice (One to ten millions of cells per injection). When tumors reached approximately 50-70 mm^3, tumor-bearing mice were randomized to receive oral gavage with either vehicle of H-1152 (60 mg/kg body weight per injection) twice a day until the endpoint. The tumor volume was determined at the indicated time points.\n(§6) To determine whether tissue culture results can be replicated in vivo, two cell lines from Myc^High group, namely NCI-H841 and NCI-H524, and two cell lines from Myc^low group, namely NCI-H211 and NCI-H2199. […]\n(§7) Experimental mice are housed and treated according to the protocol approved by the Institutional Animal Care and Use Committee of MBICR. […] Tumor diameter at injection sites are monitored at the indicated time points with a digital caliper and the volume calculated using the formula: V (mm3)=A×B×B/2, where A and B represent the largest and smallest diameters of the tumor respectively."}, "[8]": {"system": "normal cells and immortalized cells", "assay": "Trypan blue exclusion cell viability assay in normal and immortalized cells", "type": "cell-based", "conditions": "6 μM, 3 days", "protocol": "as §1\n(§8) The result after 3-days treatment were similar. […] The one observed exception is the IM-9 cells that overexpress MYC. Cell lethality in the IM-9 cell line was approximately 30% after H-1152 treatment for 3 days. FIG. 1B."}, "RPE-MYC cells [9]": {"system": "RPE-MYC cells", "assay": "Trypan blue exclusion cell viability assay in RPE-MYC cells", "type": "cell-based, human", "conditions": "72 hours", "protocol": "as §1\nFIG. 3(B) illustrates how H-1152, but not other inhibitors of ROCK kinases, preferentially kills RPE-MYC cells. […] Cell viability was determined by the trypan blue exclusion assay. […]"}, "[10]": {"system": "NCI-H211 xenograft tumors", "assay": "Xenograft tumor growth in athymic mice, NCI-H211", "type": "in vivo", "conditions": "Myc^low NCI-H211, 60 mg/kg oral gavage twice a day", "source_text": "as §5, §6, §7"}, "IM-9 cells": {"system": "IM-9 cells", "assay": "Trypan blue exclusion cell viability assay in IM-9 cells", "type": "cell-based, human", "conditions": "IM-9, 6 μM, 3 days", "protocol": "as §1, §8"}, "[11]": {"system": "Rat1A cells expressing MYC or other oncogenes", "assay": "Trypan blue exclusion cell viability assay in Rat1A cells harboring various oncogenes", "type": "cell-based, rat", "conditions": "6 μM, 3 days", "protocol": "as §1\nTo determine whether cytotoxicity by H-1152 is dependent on MYC-expression or any oncogene, rat 1A cells expressing MYC as well as other active cellular oncogenes were evaluated for lethality. […] FIG. 1C."}, "RPE-NEO cells": {"system": "RPE-NEO cells", "assay": "Trypan blue exclusion cell viability assay in RPE-NEO cells", "type": "cell-based, human", "conditions": "6 μM H-1152, 3 days", "protocol": "as §1\nIn order to confirm that H-1152 elicits cytotoxicity in cells overexpressing MYC, human retinal pigment epithelial cells were stably transfected with either MYC or a Neomycin selection marker gene (“NEO”) in combination with hTERT. […]"}, "[12]": {"system": "NCI-H841 xenograft tumors", "assay": "Xenograft tumor growth in athymic mice, NCI-H841", "type": "in vivo", "conditions": "Myc^high NCI-H841, 60 mg/kg oral gavage twice a day", "source_text": "as §5, §6, §7"}, "[13]": {"system": "NCI-H2199 xenograft tumors", "assay": "Xenograft tumor growth in athymic mice, NCI-H2199", "type": "in vivo", "conditions": "Myc^low NCI-H2199, 60 mg/kg oral gavage twice a day", "source_text": "as §5, §6, §7"}, "ROCKII": {"biological_target": "ROCKII (Homo sapiens, UniProt O75116)", "sequence (O75116 whole entry, species assumed)": "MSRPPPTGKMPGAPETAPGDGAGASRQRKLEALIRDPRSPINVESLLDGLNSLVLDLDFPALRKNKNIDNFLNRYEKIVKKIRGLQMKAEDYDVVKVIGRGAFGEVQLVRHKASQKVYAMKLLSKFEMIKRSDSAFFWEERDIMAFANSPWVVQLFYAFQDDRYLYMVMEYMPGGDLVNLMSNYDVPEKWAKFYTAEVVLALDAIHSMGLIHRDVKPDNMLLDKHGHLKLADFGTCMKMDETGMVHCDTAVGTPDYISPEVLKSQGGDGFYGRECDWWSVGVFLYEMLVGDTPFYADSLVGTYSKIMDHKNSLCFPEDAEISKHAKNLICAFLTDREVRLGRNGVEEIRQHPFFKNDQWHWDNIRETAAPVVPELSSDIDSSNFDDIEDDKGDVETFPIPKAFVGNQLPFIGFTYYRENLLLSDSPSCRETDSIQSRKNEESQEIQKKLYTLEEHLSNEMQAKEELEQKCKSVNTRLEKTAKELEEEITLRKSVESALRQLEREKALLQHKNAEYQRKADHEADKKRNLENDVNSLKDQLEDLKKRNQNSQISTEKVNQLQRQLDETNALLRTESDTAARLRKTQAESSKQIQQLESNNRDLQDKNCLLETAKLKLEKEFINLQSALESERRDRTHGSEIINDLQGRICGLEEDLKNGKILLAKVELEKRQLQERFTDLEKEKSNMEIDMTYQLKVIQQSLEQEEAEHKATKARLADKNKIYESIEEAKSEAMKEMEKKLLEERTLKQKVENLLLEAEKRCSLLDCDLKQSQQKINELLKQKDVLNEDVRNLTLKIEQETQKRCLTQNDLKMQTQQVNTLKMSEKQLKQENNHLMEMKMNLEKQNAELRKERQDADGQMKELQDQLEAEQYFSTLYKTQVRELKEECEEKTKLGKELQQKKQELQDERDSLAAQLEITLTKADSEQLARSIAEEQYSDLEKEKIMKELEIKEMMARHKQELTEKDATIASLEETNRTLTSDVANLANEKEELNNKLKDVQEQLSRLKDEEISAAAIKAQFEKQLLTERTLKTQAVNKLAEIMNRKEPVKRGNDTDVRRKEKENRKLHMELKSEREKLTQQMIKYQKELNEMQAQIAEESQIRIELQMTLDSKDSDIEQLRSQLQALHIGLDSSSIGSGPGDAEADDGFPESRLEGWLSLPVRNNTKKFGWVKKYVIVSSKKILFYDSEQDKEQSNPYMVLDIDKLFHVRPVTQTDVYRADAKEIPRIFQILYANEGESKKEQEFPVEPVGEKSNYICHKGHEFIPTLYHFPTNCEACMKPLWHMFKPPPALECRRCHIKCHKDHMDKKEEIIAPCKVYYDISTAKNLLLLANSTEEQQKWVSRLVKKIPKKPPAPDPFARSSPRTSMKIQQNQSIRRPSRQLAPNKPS", "conditions": "cited from earlier work"}, "[14]": {"conditions": "6 μM H-1152 together with 200 nM 4-OHT"}},
  "data": [
    {"compound": "4-hydroxy-tamoxifen [4-OH]", "values": [
      {"measurement": "cell death, agent alone", "setting": "[1]", "value": "low levels of cell death"},
      {"measurement": "cell death, agent alone", "setting": "[2]", "value": "low levels of cell death"}
    ]},
    {"compound": "Cc1cncc2cccc(S(=O)(=O)N3CCCNC[C@@H]3C)c12", "note": "[H-1152, dimethylfasudil]", "values": [
      {"measurement": "cell lethality", "setting": "[1]; [14]", "value": "over 30%"},
      {"measurement": "cell death, agent alone", "setting": "[1]", "value": "low levels of cell death"},
      {"measurement": "cell lines sensitive to H-1152", "setting": "[3]", "value": "3 of 24"},
      {"measurement": "mitochondria-dependent apoptosis pathway events (membrane potential, cytochrome C release, caspase 9)", "setting": "RPE-MYC cells [4]; 48 hours", "value": "cell death via activation of the mitochondria-dependent apoptosis pathway"},
      {"measurement": "apoptotic features (nuclear condensation, caspase 3 activation, PARP cleavage)", "setting": "RPE-MYC cells [4]; 3 days", "value": "Symptoms of classical apoptosis were recorded"},
      {"measurement": "cell lethality", "setting": "[5]", "value": "high cell lethality"},
      {"measurement": "cell death across cell lines, Myc^high versus Myc^low", "setting": "[6]", "value": "massive cell death in a much higher percentage of cell lines in the Myc^high group"},
      {"measurement": "cell lines that failed to undergo apoptosis", "setting": "[6]; Myc^high group", "value": "11 of the 51"},
      {"measurement": "tumor development", "setting": "[7]", "value": "stabilized tumor development"},
      {"measurement": "cell toxicity", "setting": "[8]", "value": "negligible effect on cell toxicity"},
      {"measurement": "cell lethality", "setting": "RPE-MYC cells [9]; 6 μM H-1152 + 100 μM z-VAD-fmk", "value": 15, "unit": "%"},
      {"measurement": "cell death in comparison of ROCK inhibitors", "setting": "RPE-MYC cells [9]", "value": "significant cell death"},
      {"measurement": "tumor development", "setting": "[10]", "value": "failed to impact tumor development"},
      {"measurement": "cell lethality", "setting": "IM-9 cells", "value": "approximately 30%"},
      {"measurement": "cell death among cells with various active oncogenes", "setting": "[11]", "value": "only MYC expressing cells demonstrated cell death"},
      {"measurement": "cells killed", "setting": "RPE-NEO cells", "value": "none"},
      {"measurement": "tumor development", "setting": "[12]", "value": "slowed down tumor development"},
      {"measurement": "cell lethality", "setting": "[2]; [14]", "value": "over 30%"},
      {"measurement": "cell death, agent alone", "setting": "[2]", "value": "low levels of cell death"},
      {"measurement": "tumor development", "setting": "[13]", "value": "failed to impact tumor development"}
    ]},
    {"compound": "C[C@H]1CNCCCN1S(=O)(=O)c1cccc2cncc(F)c12", "note": "[Rapasudil]", "values": [
      {"measurement": "IC50", "setting": "ROCKII", "value": 19, "unit": "nM"}
    ]}
  ]
}
